Assay results published in patent US6355799B1, “Substituted benzene compounds, process for their preparation, and herbicidal and defoliant compositions containing them” (ISK Americas Incorporated, priority 1997, dated 2002).

How the values were obtained:
Format in all cases: in vivo
[1] = tested on: large crabgrass (Digitaria sanguinalis, DIGSA); test: Pre-emerge test, greenhouse herbicide activity screening; details: pre-emerge, rated 14 days after application, 0 = no damage, 100 = complete death
Procedure, shortened: (§1)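 Compounds in acetone were track-sprayed at 15-1000 g ai/ha (187 l/ha) on sandy loam pots: pre-emerge one day after seeding, post-emerge at 2-3 leaf stage with 0.25% v/v non-ionic surfactant. Phytotoxicity was rated 14 days later on a 0 (no damage) to 100 (complete death) scale.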

[2] = tested on: ivyleaf morningglory (Ipomoea hederacea, IPOHE); test: as above; details: pre-emerge, rated 14 days after application, 0 = no damage, 100 = complete death
Procedure, shortened: as §1

[3] = tested on: johnsongrass (Sorghum halepense, SORHA); test: as above; details: pre-emerge, rated 14 days after application, 0 = no damage, 100 = complete death
Procedure, shortened: as §1

[4] = tested on: barnyardgrass (Echinochloa crus-galli, ECHCG); test: as above; details: pre-emerge, rated 14 days after application, 0 = no damage, 100 = complete death
Procedure, shortened: as §1

[5] = tested on: sicklepod (Cassia obtusifolia, CASOB); test: as above; details: pre-emerge, rated 14 days after application, 0 = no damage, 100 = complete death
Procedure, shortened: as §1

[6] = tested on: green foxtail (Setaria viridis, SETVI); test: as above; details: pre-emerge, rated 14 days after application, 0 = no damage, 100 = complete death
Procedure, shortened: as §1

[7] = tested on: velvetleaf (Abutilon theophrasti, ABUTH); test: as above; details: pre-emerge, rated 14 days after application, 0 = no damage, 100 = complete death
Procedure, shortened: as §1

[8] = tested on: lambsquarters (Chenopodium album, CHEAL); test: as above; details: pre-emerge, rated 14 days after application, 0 = no damage, 100 = complete death
Procedure, shortened: as §1

[9] = tested on: common ragweed (Ambrosia artemisizfolia L., AMBEL); test: as above; details: pre-emerge, rated 14 days after application, 0 = no damage, 100 = complete death
Procedure, shortened: as §1

[10] = tested on: redroot pigweed (Amaranthus retroflexus, AMARE); test: as above; details: pre-emerge, rated 14 days after application, 0 = no damage, 100 = complete death
Procedure, shortened: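 Sandy loam pots; pre-emerge: sown 1 d pre-spray, surface-watered after, then bottom-watered. Post-emerge: sown 8–21 d before, 2–3 leaf stage, + 0.25% v/v NIS, bottom-watered. Acetone, 187 l/ha track spray, 15–1000 g ai/ha. 0–100 injury score, day 14.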

[11] = tested on: upland rice (Oryza sp., var. Tebonnet, RICE); test: Pre-emerge test, crop safety; details: pre-emerge, rated 14 days after application, 0 = no damage, 100 = complete death
Procedure, shortened: (§2)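 Visual ratings on a 0-100 scale (0 no damage, 100 all plants dead) were taken at 14 days after treatment. Rates of 15-1000 g ai/ha in acetone, 187 l/ha, were sprayed onto soil one day after planting (pre-emerge) or onto 2-3 leaf plants with 0.25% v/v surfactant (post-emerge).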

[12] = tested on: field corn (Zea mays L., var. Dekalb 535, CORN); test: Pre-emerge test, crop safety; details: pre-emerge, rated 14 days after application, 0 = no damage, 100 = complete death
Procedure, shortened: as §2

[13] = tested on: large crabgrass (Digitaria sanguinalis, DIGSA); test: Post-emerge test, greenhouse herbicide activity screening; details: phytotoxicity rating 0-100 (0 no damage, 100 complete death), 14 days after application
Procedure, shortened: (§3)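 Each test used a mechanized track sprayer delivering 187 l/ha of acetone solution at 15–1000 g ai/ha. Post-emerge foliage at 2–3 leaves was treated with added 0.25% v/v non-ionic surfactant and bottom-watered only. Injury was assessed on day 14, where 100 means total kill.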

[14] = tested on: ivyleaf morningglory (Ipomoea hederacea, IPOHE); test: as above; details: phytotoxicity rating 0-100 (0 no damage, 100 complete death), 14 days after application
Procedure, shortened: as §3

[15] = tested on: johnsongrass (Sorghum halepense, SORHA); test: as above; details: phytotoxicity rating 0-100 (0 no damage, 100 complete death), 14 days after application
Procedure, shortened: as §3

[16] = tested on: redroot pigweed (Amaranthus retroflexus, AMARE); test: as above; details: phytotoxicity rating 0-100 (0 no damage, 100 complete death), 14 days after application
Procedure, shortened: as §3

[17] = tested on: barnyardgrass (Echinochloa crus-galli, ECHCG); test: as above; details: phytotoxicity rating 0-100 (0 no damage, 100 complete death), 14 days after application
Procedure, shortened: as §3

[18] = tested on: sicklepod (Cassia obtusifolia, CASOB); test: as above; details: phytotoxicity rating 0-100 (0 no damage, 100 complete death), 14 days after application
Procedure, shortened: as §3

[19] = tested on: green foxtail (Setaria viridis, SETVI); test: as above; details: phytotoxicity rating 0-100 (0 no damage, 100 complete death), 14 days after application
Procedure, shortened: as §3

[20] = tested on: velvetleaf (Abutilon theophrasti, ABUTH); test: as above; details: phytotoxicity rating 0-100 (0 no damage, 100 complete death), 14 days after application
Procedure, shortened: as §3

[21] = tested on: lambsquarters (Chenopodium album, CHEAL); test: as above; details: phytotoxicity rating 0-100 (0 no damage, 100 complete death), 14 days after application
Procedure, shortened: as §3

[22] = tested on: common ragweed (Ambrosia artemisizfolia L., AMBEL); test: as above; details: phytotoxicity rating 0-100 (0 no damage, 100 complete death), 14 days after application
Procedure, shortened: as §3

[23] = tested on: upland rice (Oryza sp., var. Tebonnet, RICE); test: Post-emerge test, crop safety; details: phytotoxicity rating 0-100 (0 no damage, 100 complete death), 14 days after application
Procedure, shortened: as §1

[24] = tested on: field corn (Zea mays L., var. Dekalb 535, CORN); test: Post-emerge test, crop safety; details: phytotoxicity rating 0-100 (0 no damage, 100 complete death), 14 days after application
Procedure, shortened: as §1

SMILES: COc1c(Cl)cc(F)c(-n2c(=O)c(N)c(C(F)(F)F)n(C)c2=O)c1N [Compound 1-10]
- Pre-emerge Herbicidal Activity DIGSA (phytotoxicity rating, scale 0-100) ([1]; 63 g ai/ha): 0
- Pre-emerge Herbicidal Activity DIGSA (phytotoxicity rating, scale 0-100) ([1]; 250 g ai/ha): 30
- Pre-emerge Herbicidal Activity IPOHE (phytotoxicity rating, scale 0-100) ([2]; 63 g ai/ha): 0
- Pre-emerge Herbicidal Activity IPOHE (phytotoxicity rating, scale 0-100) ([2]; 250 g ai/ha): 60
- Pre-emerge Herbicidal Activity SORHA (phytotoxicity rating, scale 0-100) ([3]; 63 g ai/ha): 0
- Pre-emerge Herbicidal Activity SORHA (phytotoxicity rating, scale 0-100) ([3]; 250 g ai/ha): 0
- Pre-emerge Herbicidal Activity ECHCG (phytotoxicity rating, scale 0-100) ([4]; 63 g ai/ha): 0
- Pre-emerge Herbicidal Activity ECHCG (phytotoxicity rating, scale 0-100) ([4]; 250 g ai/ha): 0
- Pre-emerge Herbicidal Activity CASOB (phytotoxicity rating, scale 0-100) ([5]; 63 g ai/ha): 20
- Pre-emerge Herbicidal Activity CASOB (phytotoxicity rating, scale 0-100) ([5]; 250 g ai/ha): 50
- Pre-emerge Herbicidal Activity SETVI (phytotoxicity rating, scale 0-100) ([6]; 63 g ai/ha): 0
- Pre-emerge Herbicidal Activity SETVI (phytotoxicity rating, scale 0-100) ([6]; 250 g ai/ha): 100
- Pre-emerge Herbicidal Activity ABUTH (phytotoxicity rating, scale 0-100) ([7]; 63 g ai/ha): 100
- Pre-emerge Herbicidal Activity ABUTH (phytotoxicity rating, scale 0-100) ([7]; 250 g ai/ha): 100
- Pre-emerge Herbicidal Activity CHEAL (phytotoxicity rating, scale 0-100) ([8]; 63 g ai/ha): 30
- Pre-emerge Herbicidal Activity CHEAL (phytotoxicity rating, scale 0-100) ([8]; 250 g ai/ha): 100
- Pre-emerge Herbicidal Activity AMBEL (phytotoxicity rating, scale 0-100) ([9]; 63 g ai/ha): 0
- Pre-emerge Herbicidal Activity AMBEL (phytotoxicity rating, scale 0-100) ([9]; 250 g ai/ha): 60
- Pre-emerge Herbicidal Activity AMARE (phytotoxicity rating, scale 0-100) ([10]; 63 g ai/ha): 70
- Pre-emerge Herbicidal Activity AMARE (phytotoxicity rating, scale 0-100) ([10]; 250 g ai/ha): 100
- Pre-emerge crop damage RICE (phytotoxicity rating, scale 0-100) ([11]; 63 g ai/ha): 0
- Pre-emerge crop damage RICE (phytotoxicity rating, scale 0-100) ([11]; 250 g ai/ha): 0
- Pre-emerge crop damage CORN (phytotoxicity rating, scale 0-100) ([12]; 63 g ai/ha): 0
- Pre-emerge crop damage CORN (phytotoxicity rating, scale 0-100) ([12]; 250 g ai/ha): 0
- Post-emerge Herbicidal Activity DIGSA ([13]; 63 g ai/ha): 0
- Post-emerge Herbicidal Activity DIGSA ([13]; 250 g ai/ha): 0
- Post-emerge Herbicidal Activity IPOHE ([14]; 63 g ai/ha): 20
- Post-emerge Herbicidal Activity IPOHE ([14]; 250 g ai/ha): 70
- Post-emerge Herbicidal Activity SORHA ([15]; 63 g ai/ha): 0
- Post-emerge Herbicidal Activity SORHA ([15]; 250 g ai/ha): 0
- Post-emerge Herbicidal Activity AMARE ([16]; 63 g ai/ha): 10
- Post-emerge Herbicidal Activity AMARE ([16]; 250 g ai/ha): 30
- Post-emerge Herbicidal Activity ECHCG ([17]; 63 g ai/ha): 0
- Post-emerge Herbicidal Activity ECHCG ([17]; 250 g ai/ha): 0
- Post-emerge Herbicidal Activity CASOB ([18]; 63 g ai/ha): 0
- Post-emerge Herbicidal Activity CASOB ([18]; 250 g ai/ha): 10
- Post-emerge Herbicidal Activity SETVI ([19]; 63 g ai/ha): 0
- Post-emerge Herbicidal Activity SETVI ([19]; 250 g ai/ha): 0
- Post-emerge Herbicidal Activity ABUTH ([20]; 63 g ai/ha): 30
- Post-emerge Herbicidal Activity ABUTH ([20]; 250 g ai/ha): 90
- Post-emerge Herbicidal Activity CHEAL ([21]; 63 g ai/ha): 10
- Post-emerge Herbicidal Activity CHEAL ([21]; 250 g ai/ha): 50
- Post-emerge Herbicidal Activity AMBEL ([22]; 63 g ai/ha): 0
- Post-emerge Herbicidal Activity AMBEL ([22]; 250 g ai/ha): 30
- Post-emerge Herbicidal Activity RICE (crop damage) ([23]; 63 g ai/ha): 0
- Post-emerge Herbicidal Activity RICE (crop damage) ([23]; 250 g ai/ha): 0
- Post-emerge Herbicidal Activity CORN (crop damage) ([24]; 63 g ai/ha): 0
- Post-emerge Herbicidal Activity CORN (crop damage) ([24]; 250 g ai/ha): 0
